# Results: patent US7157452B2, “Substituted 4,9-dihydrocyclopenta{imn}phenanthridine-5-ones derivatives thereof and their uses” (MGI GP, Inc., priority 2001, dated 2007)
# Several values for one entry are separate records, joined by “and”; a condition that tells them apart may be missing. Equal values may be shown once. Read-outs that look alike come from different tables or passages of the source.
# Experiments:
# [1] = test system: rabbits; conditions: cited from earlier work
# [2] = test system: Swiss albino mice; test: Gout model: MSU crystal-induced neutrophil recruitment (peritonitis); assay type: in vivo
# Experimental: Male outbread Swiss albino mice (20–22 g body weight) were purchased from Banton and Kingsman (T.O. strain; Hull, Humberside) and maintained on a standard chow pellet diet with tap water ad libitum and a 12:00 h light dark cycle. All animals were housed for 1 week prior to experimentation to allow body weight to reach 23–30 g.
# 1.11b-dihydrobenzopyrano[4,3,2-de]isoquinolin-1-one was dissolved in 100% DMSO at room temperature at a concentration of 45 mg in 2 ml. The compound was then injected into the peritoneal cavity, so as each mouse received a single dose corresponding to 45 mg/2 ml/kg (e.g. 60 μl for a mouse of 30 g). Control mice received DMSO at 2 ml/kg i.p. A third group of mice which were left untreated were added to control for potential effects of the vehicle. The study involved therefore, the following three groups: group A, untreated mice, n=6, group B, DMSO-treated mice, n=8, and group C, mice treated with 1.1 lb-dihydrobenzopyrano[4,3,2-de]isoquinolin-1-one, n=8
# MSU crystal-induced neutrophil recruitment was tested as follows. In all cases, mice were treated 1 h after the treatment noted above, with MSU crystals. A homogenous suspension of MSU crystals was obtained by a 30 min rotation. Peritonitis was induced by injection of 3 mg MSU crystals in 0.5 ml PBS (0.1 M, pH 7.4), and the recruitment of neutrophils into the cavity evaluated at the 6 h time point (Gerting et al., 1997, J. Pharmacol. Exp. Ther. 233: 123–130). Animals were then euthanised by CO2 exposure and the peritoneal cavity washed with 3 ml of PBS supplemented with 3 mM EDTA and 25 U/ml heparin.
# An aliquot (100 μl) of the lavage fluid was then diluted 1:10 in Turk's solution (0.01% crystal violet in 3% acetic acid). The samples were then vortexed and 10 μl of the stained cell solution were placed in a Neubauer haematocymometer and neutrophils numbers counted using a light microscope (Olympus B061). […]
# Data are shown for single mice, and also shown as mean±S.E. of (n) mice per group. Statistical differences were determined by ANOVA, plus Bonferroni test. […]
# [3] = biological target: T1, purified recombinant human PARP (Homo sapiens, UniProt P09874); test: PARP enzyme assay with [3H]NAD, scintillation counting; assay type: biochemical
# T1 construct: purchased Trevigan (Gaithersburg, Md.)
# T1 sequence (P09874 whole entry): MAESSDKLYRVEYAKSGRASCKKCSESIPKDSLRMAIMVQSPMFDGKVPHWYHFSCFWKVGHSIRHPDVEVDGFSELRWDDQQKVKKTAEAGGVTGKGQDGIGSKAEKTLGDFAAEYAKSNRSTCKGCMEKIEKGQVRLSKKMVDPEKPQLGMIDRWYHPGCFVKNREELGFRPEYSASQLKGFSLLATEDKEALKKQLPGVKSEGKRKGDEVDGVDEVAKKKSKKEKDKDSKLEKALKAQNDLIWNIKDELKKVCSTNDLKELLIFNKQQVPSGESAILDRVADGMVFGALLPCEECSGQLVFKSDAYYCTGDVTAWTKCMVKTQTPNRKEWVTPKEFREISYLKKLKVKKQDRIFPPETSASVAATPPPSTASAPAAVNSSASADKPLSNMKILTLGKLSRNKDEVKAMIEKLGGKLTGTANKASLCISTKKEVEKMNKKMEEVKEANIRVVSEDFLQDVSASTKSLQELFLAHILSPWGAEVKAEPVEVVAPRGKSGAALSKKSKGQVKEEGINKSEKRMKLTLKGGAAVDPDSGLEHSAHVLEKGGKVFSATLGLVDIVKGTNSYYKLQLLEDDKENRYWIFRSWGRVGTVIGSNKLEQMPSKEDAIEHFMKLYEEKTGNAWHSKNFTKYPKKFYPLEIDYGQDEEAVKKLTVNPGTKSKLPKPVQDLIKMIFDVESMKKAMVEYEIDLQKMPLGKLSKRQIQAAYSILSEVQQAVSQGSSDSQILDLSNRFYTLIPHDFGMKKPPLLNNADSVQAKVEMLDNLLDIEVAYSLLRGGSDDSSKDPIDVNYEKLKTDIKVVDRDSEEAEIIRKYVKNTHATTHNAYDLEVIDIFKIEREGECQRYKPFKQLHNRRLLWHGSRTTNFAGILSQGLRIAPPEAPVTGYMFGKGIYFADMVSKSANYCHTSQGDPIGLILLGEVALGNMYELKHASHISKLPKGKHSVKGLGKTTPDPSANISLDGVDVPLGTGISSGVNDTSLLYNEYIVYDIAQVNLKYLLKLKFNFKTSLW
# Experimental: The reaction is initiated by incubating the mixture at 25° C. After 15 minutes of incubation, the reaction is terminated by adding 500 microliters of ice cold 20% (w/v) trichloroacetic acid. The precipitate formed is transferred onto a glass fiber filter (Packard Unifilter-GF/B) and washed three times with ethanol. After the filter is dried, the radioactivity is determined by scintillation counting.
# Using the PARP assay described above, approximate IC50 (μM) values were obtained as shown in the following Table III, which also include specific embodiments of the compounds of the present invention: […]
# [4] = Table III, read-out: approximate IC50
Compound,"IC50 [3, 4] [µM]","IC50 ([3]; examples table, read-out: IC50) [µM]",other results
"Oc1cccc2c(O)nccc12 [1,5-dihydroxyisoquinoline]",–,–,reduction in infarct size ([1]; single injection 1 mg/kg): 38–42%
"O=C1N=Cc2cccc3c2C1c1ccccc1O3 (centres unmarked) [1,11b-dihydrobenzopyrano[4,3,2-de]isoquinolin-1-one]",–,–,"inhibition of cell influx vs. the vehicle group ([2]; 45 mg/kg i.p., MSU crystals, 6 h): 55%; Neutrophil Numbers (single mice) ([2]; group C, 45 mg/kg i.p. 1 h prior to 3 mg MSU crystals, peritoneal lavage at 6 h, one value per mouse, 45 mg/kg): 2.4 10^6 per mouse (2×) and 3.0 10^6 per mouse (2×) and 2.7 10^6 per mouse and 2.1 10^6 per mouse (2×) and 5.1 10^6 per mouse; Neutrophils (10^6 per mouse), mean ± S.E. ([2]; group C, 45 mg/kg i.p., MSU crystals (3 mg), 6 h, n=8, P<0.05 vs. vehicle group B (6.30 ± 0.33)): 2.85 ± 0.34 (8)* 10^6 per mouse"
NC(=O)c1cccc(N)c1 [3-aminobenzamide],–,–,"reduction in infarct size in the heart ([1]; single injection 10 mg/kg, one minute before occlusion or one minute before reperfusion): 32–42%"
O=c1[nH]c2ccc(S(=O)(=O)N3CCN(Cc4ccncc4)CC3)c3c2c2c(cccc12)C3 [Example 28],0.406,0.406,–
CN(C)CCCN1CCN(S(=O)(=O)c2ccc3[nH]c(=O)c4cccc5c4c3c2C5)CC1 [Example 29],0.109,0.109,–
O=c1[nH]c2ccc(S(=O)(=O)N3CCN(CCN4CCCC4)CC3)c3c2c2c(cccc12)C3 [Example 30],0.264,0.264,–
"CN1CCN(CC(=O)Nc2ccc3[nH]c(=O)c4cccc5c4c3c2C5)CC1 [Example 31, 2-(4-Methyl-piperazin-1-yl)-N-(5-oxo-5,9-dihydro-4H-cyclopenta[lmn]phenanthridin-1-yl)-acetamide]",0.045,0.045,–
"CC(=O)N1CCN(CC(=O)Nc2ccc3[nH]c(=O)c4cccc5c4c3c2C5)CC1 [Example 32, 2-(4-Acetyl-piperazin-1-yl)-N-(5-oxo-5,9-dihydro-4H-cyclopenta[lmn]phenanthridin-1-yl)-acetamide]",0.036,0.036,–
O=C(CN1CCN(Cc2ccccc2)CC1)Nc1ccc2[nH]c(=O)c3cccc4c3c2c1C4 [Example 33],0.218,0.218,–
O=C(CN1CCOCC1)Nc1ccc2[nH]c(=O)c3cccc4c3c2c1C4 [Example 34],0.058,0.058,–
O=C(CN1CCN(CC2CCCO2)CC1)Nc1ccc2[nH]c(=O)c3cccc4c3c2c1C4 (centres unmarked) [Example 35],0.193,0.193,–
O=C(CNCCCc1ccccc1)Nc1ccc2[nH]c(=O)c3cccc4c3c2c1C4 [Example 36],0.188,0.188,–
O=C(CNCCCN1CCOCC1)Nc1ccc2[nH]c(=O)c3cccc4c3c2c1C4 [Example 37],0.178,0.178,–
O=C(CNCCN1CCCCC1)Nc1ccc2[nH]c(=O)c3cccc4c3c2c1C4 [Example 38],0.175,0.175,–
O=C(CN1CCN(c2ccc(C(F)(F)F)cc2)CC1)Nc1ccc2[nH]c(=O)c3cccc4c3c2c1C4 [Example 39],0.219,0.219,–
O=C(CN1CCN(c2ccc(F)cc2)CC1)Nc1ccc2[nH]c(=O)c3cccc4c3c2c1C4 [Example 40],0.23,0.23,–
O=C(CN1CCN(c2ccc(F)cc2F)CC1)Nc1ccc2[nH]c(=O)c3cccc4c3c2c1C4 [Example 41],0.336,0.336,–
O=C(CN1CCN(c2ccccn2)CC1)Nc1ccc2[nH]c(=O)c3cccc4c3c2c1C4 [Example 42],0.158,0.158,–

# More lines, main results first:
"IC50 [3, 4] [µM]","IC50 ([3]; examples table, read-out: IC50) [µM]",Compound,other results
0.094,0.094,O=C(CN1CCC(N2CCCC2)CC1)Nc1ccc2[nH]c(=O)c3cccc4c3c2c1C4 [Example 44],–
0.133,0.133,CCN(CC)CCNCC(=O)Nc1ccc2[nH]c(=O)c3cccc4c3c2c1C4 [Example 45],–
0.118,0.118,CCN(CC)CCCNCC(=O)Nc1ccc2[nH]c(=O)c3cccc4c3c2c1C4 [Example 46],–
0.457,0.457,O=C(CNCCN1CCOCC1)Nc1ccc2[nH]c(=O)c3cccc4c3c2c1C4 [Example 47],–
0.144,0.144,CN(C)CCCN(C)CC(=O)Nc1ccc2[nH]c(=O)c3cccc4c3c2c1C4 [Example 48],–
0.072,0.072,CN(C)CCCN1CCN(CC(=O)Nc2ccc3[nH]c(=O)c4cccc5c4c3c2C5)CC1 [Example 49],–
0.115,0.115,CN(C)CCN1CCN(CC(=O)Nc2ccc3[nH]c(=O)c4cccc5c4c3c2C5)CC1 [Example 50],–
0.178,0.178,CN1CCCC(CN2CCN(CC(=O)Nc3ccc4[nH]c(=O)c5cccc6c5c4c3C6)CC2)C1 (centres unmarked) [Example 51],–
0.096,0.096,CN1CCC(CN2CCN(CC(=O)Nc3ccc4[nH]c(=O)c5cccc6c5c4c3C6)CC2)CC1 [Example 52],–
0.119,0.119,CN1CCC(N2CCN(CC(=O)Nc3ccc4[nH]c(=O)c5cccc6c5c4c3C6)CC2)CC1 [Example 53],–
0.267,0.267,O=C(CN1CCN(Cc2ccncc2)CC1)Nc1ccc2[nH]c(=O)c3cccc4c3c2c1C4 [Example 54],–
0.558,0.558,O=C(CN1CCN(CCN2CCOCC2)CC1)Nc1ccc2[nH]c(=O)c3cccc4c3c2c1C4 [Example 55],–
0.204,0.204,O=C(CN1CCN(c2ccncc2)CC1)Nc1ccc2[nH]c(=O)c3cccc4c3c2c1C4 [Example 56],–
0.055,0.055,CN(C)CCN(C)CC(=O)Nc1ccc2[nH]c(=O)c3cccc4c3c2c1C4 [Example 57],–
0.39,0.39,O=C(CN1CCN(CCN2CCCC2)CC1)Nc1ccc2[nH]c(=O)c3cccc4c3c2c1C4 [Example 58],–
